Measurements from patent US20260022143A1, “Cyclic Peptide Inhibitors of IL-23” (JANSSEN PHARMACEUTICA NV, priority 2022, published 2026).

Assay: Exposed Polar Surface Area (EPSA)
Assay type: physicochemical
Details: SFC on Chirex 3014 column; sample 1 mM DMSO stock; read-out: EPSA
Description: Exposed Polar Surface Area (EPSA) is an experimental descriptor of molecular polarity obtained from chromatographic retention in supercritical fluid chromatography (SFC).
The stationary phase (Chirex 3014(S)-valine and (R)-1-(alpha-naphthyl) ethylamine) was selected for its balance of lipophilic and polar attributes and its capacity to separate compounds with wide polarity differences. The mobile phase consists of methanol (+Ammonium formate) and CO2. Polar compounds are retained stronger under these conditions and a low-slope gradient of methanol achieves elution based on increasing polarity of the mobile phase. Results are normalized using calibration standards generating a linear relationship between retention times and EPSA values. The unit of EPSA is Å^2.
Along with the measurement of compounds of interest, a series of 8 calibration standards (see Materials) are analyzed generating a linear relationship between retention times and EPSA value. The 8 compounds used as calibration standard have their own EPSA value defined by G. Goetz based on the comparison with TPSA (see G. Goetz, L. Philippe and M. Shapiro, “EPSA: A novel supercritical fluid chromatography technique enabling the design of permeable cyclic peptides,” ACS Med. Chem. Lett., vol. 5, pp. 1167-1172, 2014 for more information). The slope from the linear relationship between EPSA values of these eight compounds and their retention times is used to determine the EPSA value of each compound of interest that's measured under the same condition using the equation as below: […]
The mixture of calibrations standard is reinjected every 20 compounds to validate the stability of the retention time.
The mobile phase modifier consists of ammonium formate LC_MS grade (>99%) (CAS number 540-69-2) diluted to 20 mM in HPLC grade Methanol (MeOH, CAS number 67-56-1) and liquid C02 SFC grade (CAS number 124-38-9).
Antipyrine (CAS number: 60-80-0) Chlorpromazine hydrochloride (CAS number: 69-09-0), desipramine hydrochloride (CAS number: […]), pindolol (CAS Number: 13523-86-9), diclofenac (CAS number: 15307-79-6)), m-nitro benzoic acid (CAS number: 121-92-6), bumetanide (CAS number: 28395-03-1), furosemide (CAS number: 54-31-9) were purchased from Sigma Aldrich (Steihneim, Germany).
All analyses were performed on a ultra performance convergence chromatography (UPC™) apparatus (Waters, Milford, MA, USA) equipped with a sample manager, a binary solvent delivery pump (BSM), a column manager, a convergence manager (automated back pressure regulator), a photo diode array detector (DAD) with a high pressure flow cell, and a mass detector simple quadrupole QDa. After the UV detector, the effluent of the SFC was mixed with an eluent consist of mixture MeOH/water (+0.3% Ammonia) 95/5 delivered by a make up pump with a flow rate of 0.4 mL/min and then split to the QDa using a splitter. The instrument was controlled, and data were processed with Masslynx 4.1.
The Analyses were performed using a 4.6×50 mm Chirex 3014(S)-valine and (R)-1-(alpha- naphthyl) ethylamine column (Phenomenex, Le Pecq, France) with 5 um particle and 100A pore size. The flow rate was 4 mL/min with the outlet pressure set to 14 MPa. The injection volume was 2 μL. the mobile phase composition was varied from 5% to 60% modifier at 20%/ min in a linear gradient, holding at 60% for 1.45 min and reverting to the original 5% until the end of the run. Data are acquired during 5 min. An equilibration time of 1 min is applied between 2 injections resulting in an injection every 6 min. each sample is analyzed in duplicate, resulting in a sample to sample turnaround time of 12 min.
The column temperature was set to 35° C. The mass detector was used in full scan from 100 to 800 for small molecules and from 500 to 1200 for peptides.
Each sample is delivered by compound logistics from DMSO stock solution without dilution. The concentration is 1 mM and the volume is 60 μL.

SMILES | EPSA [A^2]
CC(=O)NCCCC[C@@H]1NC(=O)[C@H](Cc2c[nH]c3c(C)cccc23)NC(=O)[C@H]([C@@H](C)O)NC(=O)[C@H](CC(N)=O)NC(=O)[C@@H](NC(C)=O)C(C)(C)SSC(C)(C)[C@@H](C(=O)N[C@@H](Cc2ccc(OCCN)cc2)C(=O)N[C@@H](Cc2ccc3ccccc3c2)C(=O)N[C@@](C)(CCCCN)C(=O)N[C@H](CCCCNC(C)=O)C(=O)N[C@@H](CC(N)=O)C(=O)N[C@H](CC(C)C)C(=O)N(C)[C@H](Cc2ccc(O)cc2)C(N)=O)NC1=O (racemic) [compound 6, MeCO-Pen(3)-N-T-7MeW-K(Ac)-Pen(3)-AEF-2Nal-aMeK-k(Ac)-N-dL-NMeDTyr-CONH2] | 170
CC(=O)NCCCC[C@@H]1NC(=O)[C@H](Cc2c[nH]c3c(C)cccc23)NC(=O)[C@H]([C@@H](C)O)NC(=O)[C@H](CC(N)=O)NC(=O)[C@@H](NC(=O)C(COCCOCC[N+](C)(C)C)NC(C)=O)C(C)(C)SSC(C)(C)[C@@H](C(=O)N[C@@H](Cc2ccc(OCCCCC[N+](C)(C)C)cc2)C(=O)N[C@@H](Cc2ccc3ccccc3c2)C(=O)NC2(C(=O)N[C@@H](CCC(=O)O)C(=O)N[C@@H](CC(N)=O)C(=O)N[C@@H](Cc3cccnc3)C(=O)N(C)CC(N)=O)CCOCC2)NC1=O (mixture of isomers) [compound 555, MeCO-APEG2Ser(RS)-Pen(3)-N-T-7MeW-K(Ac)-Pen(3)-TMAPF-2Nal-THP-E-N-3Pya-Sar-CONH2] | 171
CC(=O)N(C)CCCC[C@H](NC(=O)C1(NC(=O)[C@H](Cc2ccc3ccccc3c2)NC(=O)[C@H](Cc2ccc(OCCCCC[N+](C)(C)C)cc2)NC(=O)[C@H]2NC(=O)[C@H](COCCOCC[N+](C)(C)C)NC(=O)[C@H](Cc3c[nH]c4c(C)cccc34)NC(=O)[C@H]([C@@H](C)O)NC(=O)[C@H](CC(=O)N(C)C)NC(=O)[C@@H](NC(=O)CCOCCOCC[N+](C)(C)C)C(C)(C)SSC2(C)C)CCOCC1)C(=O)N[C@@H](CC(N)=O)C(=O)N[C@@H](Cc1cccnc1)C(=O)N(C)CC(=O)N(C)C (relative stereo) [compound 247, cPEG3aCO-Pen(3)-N(N(Me)2)-T-7MeW-APEG2Ser(S*)-Pen(3)-TMAPF-2Nal-THP-K(NMeAc)-N-3Pya-Sar-CON(Me)2] | 145
CC(=O)N[C@@H]1C(=O)N[C@@H](CC(=O)N(C)C)C(=O)N[C@@H]([C@@H](C)O)C(=O)N[C@@H](Cc2c[nH]c3c(C)cccc23)C(=O)N[C@@H](COCCOCC[N+](C)(C)C)C(=O)N[C@H](C(=O)N[C@@H](Cc2ccc(OCCOCCOCC[N+](C)(C)C)cc2)C(=O)N[C@@H](Cc2ccc3ccccc3c2)C(=O)NC2(C(=O)N[C@@H](COCCOCC[N+](C)(C)C)C(=O)N[C@@H](CC(N)=O)C(=O)N[C@@H](Cc3cccnc3)C(=O)N(C)CC(=O)N(C)C)CCOCC2)C(C)(C)SSC1(C)C (relative stereo) [compound 256, MeCO-Pen(3)-N(N(Me)2)-T-7MeW-APEG2Ser(S*)-Pen(3)-APEG3F-2Nal-THP-APEG2Ser(S*)-N-3Pya-Sar-CON(Me)2] | 142
CC(=O)N(C)CCCC[C@@H]1NC(=O)[C@H](Cc2c[nH]c3c(C)cccc23)NC(=O)[C@H]([C@@H](C)O)NC(=O)[C@H](CC(=O)N(C)C)NC(=O)[C@@H](NC(=O)CCOCCOCC[N+](C)(C)C)C(C)(C)SSC(C)(C)[C@@H](C(=O)N[C@@H](Cc2ccc(OCCN(CCOCC[N+](C)(C)C)CCOCC[N+](C)(C)C)cc2)C(=O)N[C@@H](Cc2ccc3ccccc3c2)C(=O)NC2(C(=O)N[C@@H](CCCCN(C)C(C)=O)C(=O)N[C@@H](CC(N)=O)C(=O)N[C@@H](Cc3cccnc3)C(=O)N(C)CC(=O)N(C)C)CCOCC2)NC1=O (relative stereo) [compound 266, cPEG3aCO-Pen(3)-N(N(Me)2)-T-7MeW-K(NMeAc)-Pen(3)-AEF(BisPEG2a)(S*)-2Nal-THP-K(NMeAc)-N-3Pya-Sar-CON(Me)2] | 157
CCCCCCCCCCCC(=O)N[C@@H](CCC(=O)NCCOCCOCC(=O)NCCOCCOCC(=O)NC(COCCOCC[N+](C)(C)C)C(=O)N[C@@H]1C(=O)N[C@@H](CC(=O)N(C)C)C(=O)N[C@@H]([C@@H](C)O)C(=O)N[C@@H](Cc2c[nH]c3c(C)cccc23)C(=O)N[C@@H](CCCCN(C)C(C)=O)C(=O)N[C@H](C(=O)N[C@@H](Cc2ccc(OCCOCCOCC[N+](C)(C)C)cc2)C(=O)N[C@@H](Cc2ccc3ccccc3c2)C(=O)NC2(C(=O)N[C@@H](CCCCN(C)C(C)=O)C(=O)N[C@@H](CC(N)=O)C(=O)N[C@@H](Cc3cccnc3)C(=O)N(C)CC(=O)N(C)C)CCOCC2)C(C)(C)SSC1(C)C)C(=O)O (relative stereo) [compound 366, C12gEPEG2PEG2CO-APEG2Ser(S*)-Pen(3)-N(N(Me)2)-T-7MeW-K(NMeAc)-Pen(3)-APEG3F-2Nal-THP-K(NMeAc)-N-3Pya-Sar-CON(Me)2] | 162
CCCCCCCCCCCCCC(=O)N[C@@H](CCC(=O)NCCOCCOCC(=O)NCCOCCOCC(=O)N[C@@H](COCCOCC[N+](C)(C)C)C(=O)N[C@@H]1C(=O)N[C@@H](CC(=O)N(C)C)C(=O)N[C@@H]([C@@H](C)O)C(=O)N[C@@H](Cc2c[nH]c3c(C)cccc23)C(=O)N[C@@H](CCCCN(C)C(C)=O)C(=O)N[C@H](C(=O)N[C@@H](Cc2ccc(OCCOCCOCC[N+](C)(C)C)cc2)C(=O)N[C@@H](Cc2ccc3ccccc3c2)C(=O)NC2(C(=O)N[C@@H](CCCCN(C)C(C)=O)C(=O)N[C@@H](CC(N)=O)C(=O)N[C@@H](Cc3cccnc3)C(=O)N(C)CC(=O)N(C)C)CCOCC2)C(C)(C)SSC1(C)C)C(=O)O (relative stereo) [compound 367, C14gEPEG2PEG2CO-APEG2Ser(S*)-Pen(3)-N(N(Me)2)-T-7MeW-K(NMeAc)-Pen(3)-APEG3F-2Nal-THP-K(NMeAc)-N-3Pya-Sar-CON(Me)2] | 162
CCCCCCCCCCCC(=O)N[C@@H](CCC(=O)NCCOCCOCC(=O)NCCOCCOCC(=O)NCCCC[C@@H]1NC(=O)[C@H](Cc2c[nH]c3c(C)cccc23)NC(=O)[C@H]([C@@H](C)O)NC(=O)[C@H](CC(=O)N(C)C)NC(=O)[C@@H](NC(=O)C(COCCOCC[N+](C)(C)C)NC(=O)COCCOCCNC(=O)COCCOCCNC(=O)CC[C@H](NC(=O)CCCCCCCCCCC)C(=O)O)C(C)(C)SSC(C)(C)[C@@H](C(=O)N[C@@H](Cc2ccc(OCCOCCOCC[N+](C)(C)C)cc2)C(=O)N[C@@H](Cc2ccc3ccccc3c2)C(=O)NC2(C(=O)N[C@@H](CCCCN(C)C(C)=O)C(=O)N[C@@H](CC(N)=O)C(=O)N[C@@H](Cc3cccnc3)C(=O)N(C)CC(=O)N(C)C)CCOCC2)NC1=O)C(=O)O (relative stereo) [compound 368, C12gEPEG2PEG2CO-APEG2Ser(S*)-Pen(3)-N(N(Me)2)-T-7MeW-K(PEG2PEG2gEC12)-Pen(3)-APEG3F-2Nal-THP-K(NMeAc)-N-3Pya-Sar-CON(Me)2] | 166
CCCCCCCCCCCCCC(=O)N[C@@H](CCC(=O)NCCOCCOCC(=O)NCCOCCOCC(=O)NCCCC[C@@H]1NC(=O)[C@H](Cc2c[nH]c3c(C)cccc23)NC(=O)[C@H]([C@@H](C)O)NC(=O)[C@H](CC(=O)N(C)C)NC(=O)[C@@H](NC(=O)[C@H](COCCOCC[N+](C)(C)C)NC(=O)COCCOCCNC(=O)COCCOCCNC(=O)CC[C@H](NC(=O)CCCCCCCCCCCCC)C(=O)O)C(C)(C)SSC(C)(C)[C@@H](C(=O)N[C@@H](Cc2ccc(OCCOCCOCC[N+](C)(C)C)cc2)C(=O)N[C@@H](Cc2ccc3ccccc3c2)C(=O)NC2(C(=O)N[C@@H](CCCCN(C)C(C)=O)C(=O)N[C@@H](CC(N)=O)C(=O)N[C@@H](Cc3cccnc3)C(=O)N(C)CC(=O)N(C)C)CCOCC2)NC1=O)C(=O)O (relative stereo) [compound 369, C14gEPEG2PEG2CO-APEG2Ser(S*)-Pen(3)-N(N(Me)2)-T-7MeW-K(PEG2PEG2gEC14)-Pen(3)-APEG3F-2Nal-THP-K(NMeAc)-N-3Pya-Sar-CON(Me)2] | 184
